According to patent US11867696B2, “Antigen-coupled immunoreagents” (CELL IDX, INC., priority 2015, dated 2024):
Where no end group is shown, it is not given here. [ ]: non-standard residue; d: D form. The star is where a group is joined. AOA = aminooxyacetyl (N-terminus modified with aminooxyacetamide), NOCC(=O)*; pY = N[C@@H](Cc1ccc(OP(=O)(O)O)cc1)C(=O)O

Target: corresponding anti-peptide antibody
Experiment: Dissociation constants (KD) between peptide and its corresponding antibody, ForteBio instrument
Format: binding, rabbit
Excerpt: Goat anti-mouse and goat anti-rabbit antibodies were purchased from ImmunoReagents, Inc. (Raleigh, NC). Rabbit monoclonal anti-estrogen receptor (ER), anti-progesterone receptor (PR) and anti-HER2/neu receptor (HER2) antibodies were purchased from Epitomics, Inc. (Fremont, CA). Mouse anti-Ki67 was purchased from BD Biosciences, San Diego, CA Rabbit monoclonal anti-peptide antibodies against PEP1, PEP2, PEP3, PEP4, and PEP5 were obtained from AvantGen, Inc. (San Diego, CA).
The “AOA” group (aminooxyacetamide) was used to attach the peptide to the 4FB-modified primary antibody. Also shown in Table 1 are the dissociation constants (KD) between peptide and its corresponding antibody. These values were obtained using a ForteBio instrument (www.fortebio.com).

Substance	Kd [nM]
AOA-DATNVGDEGGFAPNILENK ({AOA}-DATNVGDEGGFAPNILENK) [PEP3]	0.09
AOA-DITSDTSGDFR ({AOA}-DITSDTSGDFR) [PEP2]	0.16
AOA-ETSGLQEQRNHLQGK-NH2 (HELM PEPTIDE1{[NOCC(=O)[*:2]].E.T.S.G.L.Q.E.Q.R.N.H.L.Q.G.K.[am]}$$$$V2.0; SMILES CC(C)C[C@H](NC(=O)CNC(=O)[C@H](CO)NC(=O)[C@@H](NC(=O)[C@H](CCC(=O)O)NC(=O)CON)[C@@H](C)O)C(=O)N[C@@H](CCC(N)=O)C(=O)N[C@@H](CCC(=O)O)C(=O)N[C@@H](CCC(N)=O)C(=O)N[C@@H](CCCNC(=N)N)C(=O)N[C@@H](CC(N)=O)C(=O)N[C@@H](Cc1c[nH]cn1)C(=O)N[C@@H](CC(C)C)C(=O)N[C@@H](CCC(N)=O)C(=O)NCC(=O)N[C@@H](CCCCN)C(N)=O) [PEP6]	0.02
AOA-GLEPGQEYNVLLTAEK ({AOA}-GLEPGQEYNVLLTAEK) [PEP4]	0.09
AOA-LALQAQPVPDELVTK ({AOA}-LALQAQPVPDELVTK) [PEP1]	0.09
AOA-RPHFPQF-pY-SASGTA ({AOA}-RPHFPQF[pY]SASGTA) [PEP5]	0.04
